Series [1] is described as follows: Cytotoxicity against human HepG2 cells assessed as cell viability at 8 ug/ml measured by SRB assay. Particulars: at 8 µg/mL, read-out: Activity. It is filed as toxicity, cell-based. For orientation: In SRB staining, fixed cells bind dye roughly in proportion to their protein.
Series [2] in a line: Cytotoxicity against human HepG2 cells assessed as cell viability at 64 ug/ml measured by SRB assay. The class given is toxicity, cell-based. The note with it: at 64 µg/mL, read-out: Activity.
Series [3] concerns Escherichia coli. Nature of the series: Antibacterial activity against Escherichia coli ATCC 25922 assessed as resistance development by measuring fold increase in MIC. It is filed as functional.
Series [4] in a line: Toxicity in septicemia mouse model infected with Staphylococcus aureus ATCC 43300 assessed as effect on spleen at 5 to 10 mg/kg, administered every 12 hrs for 3 days measured by histopathological analysis. The class given is organism-based. The note with it: in vivo, dose 5-10 mg/kg.
The test system of series [5] is Staphylococcus aureus. Nature of the series: Anti-biofilm activity in Staphylococcus aureus ATCC 43300 assessed as disruption rate of biofilm at 0.5 ug/ml measured by crystal violet staining method. It is filed as functional. The note with it: dose 0.5 µg/ml.
For series [6], the system named is Escherichia coli. In words: Anti-biofilm activity in Escherichia coli ATCC 25922 assessed as disruption rate of biofilm at 16 ug/ml measured by crystal violet staining method. The class given is functional. Particulars: dose 16 µg/ml.
A short description of series [7]: Cytotoxicity against human HepG2 cells assessed as cell viability at 4 ug/ml measured by SRB assay. The note with it: at 4 µg/mL, read-out: Activity. It is filed as toxicity, cell-based.
In series [8] the test system is Escherichia coli. In words: Anti-biofilm activity in Escherichia coli ATCC 25922 assessed as disruption rate of biofilm at 64 ug/ml measured by crystal violet staining method. The class given is functional. Particulars: dose 64 µg/ml.
The subject of series [9] is Staphylococcus aureus. In words: In vivo antibacterial activity against Staphylococcus aureus ATCC 43300 in septicemia mouse model assessed as reduction in bacterial load in kidney at 10 mg/kg, administered every 12 hrs for 3 days. It is filed as functional. More on the design: scale not given: the % may be the effect or the level left.
For series [10], the system named is Escherichia coli. In words: Anti-biofilm activity in Escherichia coli ATCC 25922 assessed as inhibition of biofilm formation at 32 ug/ml. The class given is functional.
Series [11] relates to Escherichia coli. Nature of the series: Anti-biofilm activity in Escherichia coli ATCC 25922 assessed as inhibition of biofilm formation at 2 ug/ml. The class given is functional.
Series [12] deals with Cell membrane. Nature of the series: Induction of inner membrane permeabilization in Staphylococcus aureus ATCC 43300 assessed as increase in PI uptake by measuring increase in fluorescence intensity at 1 to 8 ug/ml by propidium iodide staining based fluorescence analysis. It is filed as subcellular. Particulars: dose 1-8 µg/ml.
The test system of series [13] is Bacillus subtilis. In words: Antibacterial activity against Bacillus subtilis ATCC 9372. The class given is functional.
Series [14] concerns Escherichia coli. In words: Anti-biofilm activity in Escherichia coli ATCC 25922 assessed as disruption rate of biofilm at 4 ug/ml measured by crystal violet staining method. The class given is functional. The note with it: dose 4 µg/ml.
For series [15], the system named is Staphylococcus aureus. In words: Anti-biofilm activity in Staphylococcus aureus ATCC 43300 assessed as disruption rate of biofilm at 2 ug/ml measured by crystal violet staining method. It is filed as functional. The note with it: dose 2 µg/ml.
Series [16] is described as follows: Toxicity in septicemia mouse model infected with Staphylococcus aureus ATCC 43300 assessed as effect on kidney at 5 to 10 mg/kg, administered every 12 hrs for 3 days measured by histopathological analysis. It is filed as organism-based. Particulars: in vivo, dose 5-10 mg/kg.
For series [17], the system named is Escherichia coli. In words: Anti-biofilm activity in Escherichia coli ATCC 25922 assessed as disruption rate of biofilm at 2 ug/ml measured by crystal violet staining method. It is filed as functional. Particulars: dose 2 µg/ml.
Series [18] deals with Staphylococcus aureus. In words: Antibacterial activity against Staphylococcus aureus ATCC 31007. It is filed as functional.
Series [19] deals with Cell membrane. Nature of the series: Induction of cell membrane disruption in Staphylococcus aureus ATCC 43300 assessed as increase in fluorescence intensity at 8 times MIC measured after 2 hrs by PI staining based fluorescence microscopic analysis. It is filed as subcellular.
The test system of series [20] is Escherichia coli. Nature of the series: Antibacterial activity against Escherichia coli ATCC 25922 assessed as bacterial killing at 4 x MIC incubated for 9 hrs and measured by time-kill kinetic study. The class given is functional.
For series [21], the system named is Escherichia coli. Nature of the series: Antibacterial activity against Escherichia coli ATCC 25922 assessed as bacterial killing at 8XMIC incubated for 3 hrs and measured by time-kill kinetic study. The class given is functional.

Calls of active or inactive are those of the source. The calls are words filed in the database; no cut-off is given here.

The inhibition is the relative decrease from the control value, in per cent. One may read the MIC as the least concentration at which growth counts as inhibited.

On to `C=CCc1ccc(OCCC[N+](C)(C)CCCCCC)c(-c2ccc(OCCC[N+](C)(C)CCCCCC)c(CC=C)c2)c1.[Br-].[Br-]`, for which the viability at 8 ug/ml in [1] came out at 90.3%. In addition, in series [2], the viability at 64 ug/ml came out at 55.2%. In addition, in series [3], the “fold change (FC)” value is recorded as less than 4. For the same compound, the Activity result in series [4] is on record as “Non-Toxic”; in series [5], 5.22%; in series [6], 51.55%; in series [8] it was 65.6%; in series [9], 98.7%; in [14] it was 27.99%. In addition, the Activity in series [15] is 11.43%; in series [16], “Non-Toxic”; in [17], 15.1%; in series [20] it was “>=99%”; in series [21] it was 100%. The viability at 4 ug/ml in [7] was 94.7%. The inhibition at 32 µg/mL in series [10] was 87.4%. Besides, in series [11], the inhibition at 2 µg/mL was found to be 24.3%. In addition, the outcome in [12] and in series [19] was Active. Besides, the MIC in [13] was found to be 1 µg/mL; in series [18] it was 0.5 µg/mL.

The values are drawn from ChEMBL document CHEMBL5113489, “Design, synthesis, and biological evaluation of membrane-active honokiol derivatives as potent antibacterial agents” (Eur J Med Chem, 2022).
